Results on one substance are retold here after paper PMC6123649, “Structural basis for specific inhibition of the highly sensitive ShHTL7 receptor” (EMBO Reports, 2018).

Where “and” joins values, the source holds several entries; their conditions need not be identical. Identical values can stand only once.

The target in one assay is ShHTL7S95C. The assay is described as follows: Intrinsic Triton fluorescence binding assay. As to conditions: inactive ShHTL7S95C; buffer with 0.005% Tween‐20; converged after 2.5 h of incubation; read-out: dissociation constant (Kd), intrinsic Triton fluorescence. More on the design: species or system Striga hermonthica.
Another assay addresses T1, ShHTL7 (Striga hermonthica, UniProt A0A0M3PNA2).
T1 sequence (A0A0M3PNA2 1-271): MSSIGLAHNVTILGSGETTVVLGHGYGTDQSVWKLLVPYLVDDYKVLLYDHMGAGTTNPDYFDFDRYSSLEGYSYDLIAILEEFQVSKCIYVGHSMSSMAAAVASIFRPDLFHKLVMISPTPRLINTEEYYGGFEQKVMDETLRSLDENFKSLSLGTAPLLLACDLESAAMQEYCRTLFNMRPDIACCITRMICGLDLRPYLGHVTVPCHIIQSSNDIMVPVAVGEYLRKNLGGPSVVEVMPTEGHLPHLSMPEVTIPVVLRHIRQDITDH
The assay is described as follows: Yoshimulactone Green (YLG) hydrolysis competition assay. It is filed as biochemical. How it is done:
In vitro YLG hydrolysis assays were performed using 3 μM of ShHTL7, ShHTL7‐L143Y, AtD14, and OsD14 in a reaction buffer (1× PBS) with 0.1% dimethyl sulfoxide (DMSO) in a 100 μl volume on a 96‐well black plate (Greiner). The fluorescent intensity was measured by SpectraMax i3 (Molecular Devices) using an excitation wavelength of 480 nm and a detection wavelength of 520 nm. […] Protein‐Triton mixes were pre‐incubated for 30 min. 1 μM YLG (Tokyo Chemical Industry Co. Ltd.) was then added, and the assay was incubated for 60 min. The change in fluorescence observed over the course of 1 h incubation of YLG in buffer without protein was subtracted from the data collected in the presence of protein. The resulting relative fluorescence values were analyzed. The inhibitory curves and IC50 values were plotted using GraphPad (Prism 6) four‐parameter logistic curve. The rate of YLG hydrolysis by ShHTL7 was recorded following the above method at 10‐min interval for 2 h.

Another assay has as its system ShHTL7‐L143Y. The assay is described as follows: YLG hydrolysis assay. It counts as biochemical, Striga hermonthica. How it is done:
(§1) In vitro YLG hydrolysis assays were performed using 3 μM of ShHTL7, ShHTL7‐L143Y, AtD14, and OsD14 in a reaction buffer (1× PBS) with 0.1% dimethyl sulfoxide (DMSO) in a 100 μl volume on a 96‐well black plate (Greiner). The fluorescent intensity was measured by SpectraMax i3 (Molecular Devices) using an excitation wavelength of 480 nm and a detection wavelength of 520 nm. ShHTL7, ShHTL7‐L143Y, AtD14, and OsD14 were mixed with Triton X‐100, using serial dilutions to cover the Triton X‐100 concentration range from 5 μM until 4.87 nM. Protein‐Triton mixes were pre‐incubated for 30 min. 1 μM YLG (Tokyo Chemical Industry Co. Ltd.) was then added, and the assay was incubated for 60 min. The change in fluorescence observed over the course of 1 h incubation of YLG in buffer without protein was subtracted from the data collected in the presence of protein. The resulting relative fluorescence values were analyzed. The inhibitory curves and IC50 values were plotted using GraphPad (Prism 6) four‐parameter logistic curve. The rate of YLG hydrolysis by ShHTL7 was recorded following the above method at 10‐min interval for 2 h.

The next assay deals with T2, AtD14 (Arabidopsis thaliana, UniProt Q9SQR3).
T2 construct: made in house; host or cells: E. coli BL21 (DE3)
T2 sequence (Q9SQR3 1-267): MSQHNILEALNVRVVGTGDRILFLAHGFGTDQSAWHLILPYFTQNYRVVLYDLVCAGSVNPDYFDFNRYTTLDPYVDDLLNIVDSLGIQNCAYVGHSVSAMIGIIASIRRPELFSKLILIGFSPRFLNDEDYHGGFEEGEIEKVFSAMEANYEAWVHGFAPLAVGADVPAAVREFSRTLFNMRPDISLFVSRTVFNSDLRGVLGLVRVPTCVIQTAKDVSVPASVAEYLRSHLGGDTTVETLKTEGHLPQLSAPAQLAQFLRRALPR
The assay is described as follows: YLG hydrolysis assay. It counts as biochemical. As to the method:
as §1

Another assay deals with T3, OsD14 (Oryza sativa subsp. japonica, UniProt Q10QA5).
T3 construct: made in house; host or cells: E. coli BL21 (DE3)
T3 sequence (Q10QA5 1-318): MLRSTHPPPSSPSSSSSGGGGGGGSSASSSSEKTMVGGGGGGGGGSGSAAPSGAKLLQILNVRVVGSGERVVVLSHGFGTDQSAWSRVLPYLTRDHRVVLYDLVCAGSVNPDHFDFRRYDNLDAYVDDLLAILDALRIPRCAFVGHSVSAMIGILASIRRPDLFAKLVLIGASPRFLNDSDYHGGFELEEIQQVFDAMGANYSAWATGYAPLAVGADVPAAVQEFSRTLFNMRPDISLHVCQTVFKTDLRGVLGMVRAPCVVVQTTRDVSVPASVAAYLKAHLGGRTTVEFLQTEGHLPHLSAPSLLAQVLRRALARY
The assay is described as follows: YLG hydrolysis assay. It is filed as biochemical. As to the method:
as §1

Assay [1] concerns GR24‐dependent interaction of ShHTL7 with ShMAX2. As to the kind of experiment: GST pulldown of ShMAX2. It counts as biochemical, Striga hermonthica. The conditions noted are these: pre‐incubation of ShHTL7 with Triton; 20 μM GR24. As to the method: (§2) Purified GST‐ShHTL7 wt, ShHTL7 L143Y, and ShHTL7‐H246N mutants were bound to the Glutathione Sepharose 4B Beads, where Triton is used in the lysis step and in certain samples Tween‐20 was used instead of Triton. Bound proteins were incubated with 20 μM GR24 and His6‐ShMAX2 lysate for 2 h and then washed with lysis buffer for three times and then ShHTL7 wt and mutants were eluted with the addition of 20 mM reduced glutathione. Thus, eluted protein was subjected to Western blot using antibody specific to 6XHis (anti‐His).

Assay [2] has as its system ShHTL7 L143Y binding to ShMAX2. As to the kind of experiment: GST pulldown of ShMAX2. It is filed as biochemical, Striga hermonthica. As to the method:
as §2

For a further assay, the system named is Striga hermonthica seeds. As to the kind of experiment: Striga hermonthica germination bioassay. It counts as in vivo. As to the method:
Striga hermonthica seeds were collected from Sorghum bicolor field in Sudan. For germination bioassays, Striga seeds were first sterilized and pre‐conditioned as described before 31. […] Triton X‐100/GR24 mixtures were applied (50 μl per disk) in four replicates. Corresponding volumes of GR24 and sterile MiliQ water were included as positive and negative control, respectively. The petri dishes were sealed with parafilm, enfolded with aluminum foil, and incubated for 48 h at 30°C. The germinated (seeds with radicle emerging through the seed coat) and non‐germinated Striga seeds were recorded under a binocular, and germination percentage was calculated.

Another assay deals with Orobanche cumana. More on the design: method as in PMID 23915294. As to conditions: concentrations above 0.001%; cited from earlier work.

What is called Kd is the equilibrium constant for the complex coming apart. For orientation: IC50 means the concentration that gives 50% inhibition. In the case of Triton X-100, the equilibrium dissociation constant (Kd) on ShHTL7S95C came out at 195 ± 21 nM. Further, the 50% inhibitory concentration (IC50) at ShHTL7 (3 μM ShHTL7, 1 μM YLG, pre‐incubation with compound, read-out: IC50, YLG hydrolysis by ShHTL7) stood at 470 ± 110 nM. The “fold lower IC50 than that reported for Soporidine” value at ShHTL7 (compared with non‐specific inhibitor Soporidine) was determined as 25 fold. The “inhibition of hydrolysis activity of ShHTL7 L143Y” value in the assay on ShHTL7‐L143Y is on record as “did not inhibit”. Moreover, the “decrease of YLG hydrolysis rate” value on AtD14 (5 μM Triton) and at OsD14 (5 μM Triton) was 10% throughout. Also, the “effect on YLG hydrolysis activity” value on AtD14 (Triton up to 0.5 μM) and at OsD14 (Triton up to 0.5 μM) was “did not impact” throughout. The “effect on GR24‐dependent interaction of ShHTL7 with ShMAX2” value in assay [1] is given as “inhibited”. The “inhibition of ShMAX2 binding of ShHTL7 L143Y” value in [2] is “did not inhibit”. The “reduction in GR24‐induced germination” value in the assay on Striga hermonthica seeds (15 μM Triton, GR24 0.125–1 nM, 2 days) is ~ 50% and 50%. For the same substance, the “reduction of Striga germination by Triton” value in the assay with Striga hermonthica seeds (in vivo) is recorded as “up to 50%”. In addition, the “effect on seed germination” value in the assay with Orobanche cumana was “hindered seed germination”.
